These results are taken from patent US20240350443A1, “COMPOSITION, FORMULATION, PREPARATION METHOD AND USE FOR GLUTATHIONE PRECURSOR” (priority 2021, published 2024).

Marks after values point to notes of the source that are not given here.

What all share (assay type): in vivo, Kunming mice
Experiment [1] deals with alcoholic liver damage. The experiment is described as follows: Liver protection function experiment: MDA, reduced GSH and TG in liver homogenates. An excerpt:
In the experiment, the auxiliary protection effect of the composition of the present disclosure on alcoholic liver damage was researched by detecting three indicators of liver malondialdehyde (MDA) content, reduced glutathione (GSH) and triglyceride (TG) and histopathologic examination (wherein the lower the MDA and TG contents were, the higher the GSH content was, the better the liver protection effect was). If the three indicators of the liver MDA, the reduced GSH and the TG were positive, or any two of the three indicators of the liver MDA, the reduced GSH and the TG were positive and the histopathological examination result was positive, the composition could be determined to have the auxiliary protection effect on alcoholic liver damage.
Test animals were as follows: male SPF-grade Kunming mice aged 5 to 6 weeks, with body weights of 18-22 g, available from Hubei Provincial Laboratory Animal Public Service Center, Hubei, China [certification No.: SCXK (E) 2020-0018].
The experimental method was as follows: 117 mice were randomly divided into 9 groups, namely a blank control group, a model control group and experimental groups 1-7 (the formula of the test samples was referred to the formula of the experimental groups 1-7), with 13 mice in each group.
Distilled water was given to the blank control group and the model control group, corresponding test substances (the dose of acetylcysteine or cysteine agent in each test substance was 500 mg/kg BW) were given to each experimental group according to the formula, and the intragastric capacity was 20 mL/kg BW. On day 30 of the experiment, the mice of the model control group and each experimental group were intragastrically administered with 14 mL/kg BW of 50% ethanol once, and distilled water with equal volume was given to the blank control group, and then the mice were fasted for 16 hours. The mice were sacrificed by cervical dislocation after weighing.
0.5 g of liver was taken and added with normal saline to prepare a liver homogenate, and then the MDA, reduced GSH and TG were detected. The detection method and the calculation method for the MDA and reduced GSH were described according to the instruction of a kit from NanJing JianCheng Bioengineering Institute, and the TG was detected by using the Beckman Coulter AU680 Chemistry Analyzer.

Experiment [2] relates to alcoholic liver damage. The experiment is described as follows: Liver protection function experiment: liver histopathology score (lipid droplets). Conditions: alcoholic liver damage mice; score 0-4 points per field; x ± s, 13 mice.
Description: Distilled water was given to the blank control group and the model control group, corresponding test substances (the dose of acetylcysteine or cysteine agent in each test substance was 500 mg/kg BW) were given to each experimental group according to the formula, and the intragastric capacity was 20 mL/kg BW. On day 30 of the experiment, the mice of the model control group and each experimental group were intragastrically administered with 14 mL/kg BW of 50% ethanol once, and distilled water with equal volume was given to the blank control group, and then the mice were fasted for 16 hours. The mice were sacrificed by cervical dislocation after weighing. […]
The areas of the fields of view occupied by various lesions in each field of view were respectively recorded, and the total lesion scores of the observed fields of view were accumulated. […]
The test system of another experiment is aged mice. The experiment can be described thus: Oxidation resistance function experiment in aged mice. Conditions: x ± s, n = 13. An excerpt: In the experiment, the oxidation resistance effect of the composition was researched by detecting four indicators of MDA, protein carbonyl, antioxidant enzyme activity (GSH-PX or SOD) and reduced GSH content. If three of the four indicators were positive, the composition could be determined to have the oxidation resistance effect.
Test animals were as follows: male SPF-grade Kunming mice aged over 10 months, with body weights of 40-60 g, available from Hubei Provincial Laboratory Animal Public Service Center, Hubei, China [certification No.: SCXK (E) 2020-0018].
The experimental method was as follows: 104 mice were randomly divided into 8 groups, namely, a negative control group and experimental groups 1-7 (i.e., the formula of the test samples adopted the formula of the above experimental groups 1-7), with 13 mice in each group.
Distilled water was given to the blank control group, corresponding test substances (the dose of acetylcysteine or cysteine agent in each test substance was 500 mg/kg BW) were given to each experimental group, and the intragastric capacity was 20 mL/kg BW. After 30 days of continuous intragastric administration, blood was sampled from the inner canthus of each group of animals, a hemolysate was prepared, and the MDA content and the glutathione peroxidase (GSH-PX) activity were detected; the animals were sacrificed and the livers were taken as homogenates, 10% liver homogenates were prepared for reduced GSH and protein carbonyl determination, and 1% liver homogenates were prepared for superoxide dismutase (SOD) activity determination. Each detection kit was available from NanJing JianCheng Bioengineering Institute.

The next experiment concerns humoral immune function. The experiment can be described thus: Humoral immune function: antibody-producing cells and serum hemolysin level. Conditions: mice; 500 mg/kg BW intragastric; x ± s, n = 10. An excerpt:
(§1) In the experiment, the effect of the composition on the immune system of mice was researched from four aspects of cellular immune function, humoral immune function, monocyte-macrophage function and NK cell activity.
(§2) Test animals were as follows: male SPF-grade Kunming mice aged 4 weeks, with body weights of 18-22 g, available from Hubei Provincial Laboratory Animal Public Service Center, Hubei, China [certification No.: SCXK (E) 2020-0018].
(§3) The experimental method was as follows: 400 mice were randomly divided into 5 groups, with 80 mice in each group, and each group was subjected to 5 kinds of immunoassays including body weight and organ/body ratio measurement, cellular immune function measurement, humoral immune function measurement, monocyte-macrophage function measurement, and NK cell activity measurement. For each immunoassay, 80 mice were tested and divided into 8 groups, namely a negative control group and experimental groups 1-7, with 10 mice in each group; distilled water was given to the negative control group, corresponding test substances (the dose of acetylcysteine or cysteine agent in each test substance was 500 mg/kg BW) were given to each experimental group, and the intragastric capacity was 20 mL/kg BW.

Experiment [3] deals with mouse peritoneal macrophages. The experiment can be described thus: Phagocytosis of chicken erythrocytes by mouse peritoneal macrophages. The following applies: x ± s, n = 10.
Description: as §1, §2, §3

Another experiment has as its system immune system of mice. The experiment can be described thus: Immunity enhancement function, overall determination. The following applies: any two of four aspects positive.
Where [4] appears, read: alcoholic liver damage mice, 500 mg/kg BW acetylcysteine or cysteine intragastric, 30 days, x ± s, 13 mice.
The mark [5] stands for this setting: 10% liver homogenates of aged mice, 30 days.

`CC(=O)N[C@@H](CS)C(=O)O` [Experimental group 1, N-acetylcysteine]: the “Auxiliary protection effect on alcoholic liver damage (determination)” value in the experiment with alcoholic liver damage [1] (Technical Specification for Inspection and Evaluation of Health Food (2003 edition)) is “had an auxiliary protection effect on alcoholic liver damage”. For the same molecule, in the experiment on alcoholic liver damage [1] (setting [4]), the “MDA in liver homogenates” value is on record as 0.98 ± 0.28^bc nmol/mgprot, the “Reduced GSH in liver homogenates” value is 34.55 ± 9.48^bc mg/gprot and the “TG in liver homogenates” value is 1.52 ± 0.64^bc mmol/L. In addition, in the experiment on alcoholic liver damage [2], the “Liver histopathology score (fatty degeneration of hepatocytes)” value is recorded as 1.46 ± 1.05^bc. Besides, the SOD in the experiment on aged mice (1% liver homogenates of aged mice, 30 days) was 338.4 ± 44.9^bc U/mgprot. Besides, in the experiment on aged mice (2% hemolysates of aged mice, 500 mg/kg BW intragastric 30 days), the MDA is 17.88 ± 2.55^bc nmol/ml. For the same molecule, in the experiment with aged mice (setting [5]), the GSH is recorded as 30.05 ± 6.08^a mg/gprot and the Protein carbonyl is 1.33 ± 0.35^ab nmol/mgprot. Also, in the experiment with aged mice (hemolysate of aged mice, 30 days), the GSH-PX is reported as 585.2 ± 24.2^a U/ml. For the same molecule, the “Number of hemolytic plaques (N)/number of whole splenocytes” value in the experiment on humoral immune function was 161.71 ± 11.52^c. Also, the “Phagocytic rate, phagocytosis of chicken erythrocytes” value in experiment [3] is on record as 33.88 ± 2.48^b %. The “Immunity enhancement effect (determination)” value in the experiment with immune system of mice was “had the immunity enhancement effect”.
